Assay results reported in paper PMC10916402, “Meropenem-ANT3310, a unique β-lactam-β-lactamase inhibitor combination with expanded antibacterial spectrum against Gram-negative pathogens including carbapenem-resistant Acinetobacter baumannii” (Antimicrobial Agents and Chemotherapy, 2024).

Legend:
[1] = molecular target: OXA-58 (Acinetobacter baumannii, UniProt Q2TR58); assay: In vitro SBL inhibition assay (nitrocefin hydrolysis), IC50; type: biochemical, A. baumannii
Procedure: (§1) Nitrocefin (Sigma-Aldrich, St Louis, MO, USA), a chromogenic cephalosporin antibiotic (λ, 482 nm; εM, 15,000 M^−1.cm^−1), was used as a reporter substrate at 100 µM for KPC-2, OXA-23, and OXA-48, at 200 µM for OXA-24 and OXA-51, and at 50 µM for OXA-58. Enzymes were preincubated in the presence of varying concentrations of each compound (0.006 to 3000 nM, diluted twofold in dimethyl sulfoxide (DMSO) for KPC-2, OXA-23, and OXA-48 assays and 0.51 to 10,000 nM diluted threefold in DMSO for OXA-24, OXA-51, and OXA-58) for 10 min at 30°C. Nitrocefin was then added and its hydrolysis by the uninhibited enzyme fraction was followed at an absorbance wavelength of 482 nm for 10 min at 30°C using Envision UV fluorescence plate reader (Perkin Elmer, Waltham, MA, USA). Hydrolysis rate data were used to determine inhibitory activities, expressed in IC50 values [corresponding to the compound concentration (µM) required to inhibit 50% of enzymatic reaction].

[2] = molecular target: OXA-51 (Acinetobacter baumannii, UniProt Q5QT35); assay: as above; type: biochemical, A. baumannii; settings: 10 min preincubation, 30°C, read-out: Enzyme IC50
OXA-51, sequence (Q5QT35 entry or part of it): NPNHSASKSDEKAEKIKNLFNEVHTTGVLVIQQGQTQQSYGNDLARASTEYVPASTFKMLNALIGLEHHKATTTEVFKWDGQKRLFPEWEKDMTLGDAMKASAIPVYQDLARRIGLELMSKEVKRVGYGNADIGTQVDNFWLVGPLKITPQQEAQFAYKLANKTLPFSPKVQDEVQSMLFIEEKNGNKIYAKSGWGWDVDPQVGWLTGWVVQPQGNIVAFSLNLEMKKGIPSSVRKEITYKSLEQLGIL
Procedure: as §1

OXA-58, sequence (Q2TR58 19-280): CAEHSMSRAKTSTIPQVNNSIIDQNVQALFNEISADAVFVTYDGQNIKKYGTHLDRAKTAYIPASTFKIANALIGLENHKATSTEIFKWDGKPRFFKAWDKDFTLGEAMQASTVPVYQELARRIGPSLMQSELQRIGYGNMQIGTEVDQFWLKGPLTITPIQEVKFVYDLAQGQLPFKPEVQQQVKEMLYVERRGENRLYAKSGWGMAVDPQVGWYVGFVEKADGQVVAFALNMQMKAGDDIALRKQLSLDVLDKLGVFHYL

`NC(=O)[C@@H]1CC[C@@H]2CN1C(=O)N2OS(=O)(=O)O` [Avi, avibactam] showed an IC50 [1] of over 10 µM and an IC50 [2] of over 10 µM.
